Experimental data: patent publication US10570168B2, “2′ and/or 5′ amino-acid ester phosphoramidate 3′-deoxy adenosine derivatives as anti- cancer compounds” (NuCana plc, priority 2014, dated 2020)

Assays:
Experiment in all cases: Solid tumour and haematological malignancy assay (CellTiterGlo)
Assay type in all cases: cell-based
[1] = tested on: KG-1; details: Homo sapiens, KG-1, 72 h; for IC50: read-out: IC50 (absolute IC50)
Outline: (§1)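 72 hr compound treatment, duplicates, 0.5% DMSO final; readout CellTiterGlo.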

[2] = tested on: HEL92.1.7; details: Homo sapiens, HEL 92.1.7, 72 h; for IC50: read-out: IC50 (absolute IC50)
Outline: as §1

[3] = tested on: HepG2; details: Homo sapiens, HepG2, 72 h; for IC50: read-out: IC50 (absolute IC50)
Outline: as §1

[4] = tested on: MiaPaCa-2; details: Homo sapiens, MIA PaCa-2, 72 h; for IC50: read-out: IC50 (absolute IC50)
Outline: as §1

[5] = tested on: K562; details: Homo sapiens, K562, 72 h; for IC50: read-out: IC50 (absolute IC50)
Outline: as §1

[6] = tested on: CCRFCEM; details: Homo sapiens, CCRF-CEM, 72 h; for IC50: read-out: IC50 (absolute IC50); for Emax: read-out: MI %
Outline: as §1

[7] = tested on: HT29; details: Homo sapiens, HT-29, 72 h; for IC50: read-out: IC50 (absolute IC50)
Outline: as §1

[8] = tested on: HL-60; details: Homo sapiens, HL-60, 72 h; for IC50: read-out: IC50 (absolute IC50)
Outline: as §1

[9] = tested on: MCF7; details: Homo sapiens, MCF7, 72 h; for IC50: read-out: IC50 (absolute IC50)
Outline: as §1

[10] = tested on: MOLT-4; details: Homo sapiens, MOLT-4, 72 h; for IC50: read-out: IC50 (absolute IC50)
Outline: (§2)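 Cells were exposed to compound for 72 hr under standard growth conditions, and viability was then read by CellTiterGlo luminescence. Treatment used a 9-point, 3.16-fold titration in duplicate, with a lowest final concentration of 19.9 nM and 0.5% final DMSO.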

[11] = tested on: NCI-H929; details: Homo sapiens, NCI-H929, 72 h; for IC50: read-out: IC50 (absolute IC50); for Emax: read-out: MI %
Outline: as §2

[12] = tested on: BxPC-3; details: Homo sapiens, BXPC-3, 72 h, read-out: IC50 (absolute IC50)
Outline: as §2

[13] = tested on: HS445; details: Hs 445, 72 h; for IC50: read-out: IC50 (absolute IC50)
Outline: as §2

[14] = tested on: THP-1; details: Homo sapiens, THP-1, 72 h; for IC50: read-out: IC50 (absolute IC50)
Outline: as §2

[15] = tested on: SW620; details: Homo sapiens, SW-620, 72 h; for IC50: read-out: IC50 (absolute IC50)
Outline: as §2

[16] = tested on: MV4-11; details: Homo sapiens, MV4-11, 72 h; for IC50: read-out: IC50 (absolute IC50); for Emax: read-out: MI %
Outline: as §2

[17] = tested on: RL; details: Homo sapiens, 72 h; for IC50: read-out: IC50 (absolute IC50)
Outline: as §2

[18] = tested on: Jurkat; details: Homo sapiens, 72 h, read-out: IC50 (absolute IC50)
Outline: as §2

[19] = tested on: RPMI-8226; details: Homo sapiens, RPMI-8226, 72 h; for IC50: read-out: IC50 (absolute IC50)
Outline: as §2

[20] = tested on: Z138; details: Homo sapiens, Z-138, 72 h; for IC50: read-out: IC50 (absolute IC50); for Emax: read-out: MI %
Outline: as §2

Row | SMILES | IC50 [1] | IC50 [2] | IC50 [3] | IC50 [4] | IC50 [5] | IC50 [6] | Emax [6] | IC50 [7] | IC50 [8] | IC50 [9] | IC50 [10] | IC50 [11] | Emax [11] | IC50 [12] | IC50 [13] | IC50 [14] | IC50 [15] | IC50 [16] | Emax [16] | IC50 [17] | further results
1 | C[C@H](NP(=O)(OC[C@@H]1C[C@@H](O)[C@H](n2cnc3c(N)ncnc32)O1)Oc1cccc2ccccc12)C(=O)OCc1ccccc1 (stereo partly drawn) [B, (2S)-benzyl 2-(((((2S,4R,5R)-5-(6-amino-9H-purin-9-yl)-4-hydroxytetrahydrofuran-2-yl)methoxy)(naphthalen-1-yloxy)phosphoryl)amino)propanoate] | 5 to 15 µM | 100 to 5000 nM | 5 to 15 µM | 0.1 to 5 µM | 0.1 to 5 µM | 0.1 to 5 µM | 100% | 5 to 15 µM | 0.1 to 5 µM | 100 to 5000 nM | 100 to 5000 nM | 0.1 to 5 µM | 99% | 5 to 15 µM | 5 to 15 µM | 15 to 100 µM | 5 to 15 µM | 0.1 to 5 µM | 99% | 0.1 to 5 µM | IC50 [18]: 0.1 to 5 µM; IC50 [19]: 5 to 15 µM; IC50 [20]: 5 to 15 µM; Emax [20]: 100%
2 | Nc1ncnc2c1ncn2[C@@H]1O[C@H](COP(=O)(NCC(=O)OCc2ccccc2)Oc2ccccc2)C[C@H]1O (stereo partly drawn) [C, Benzyl 2-(((((2S,4R,5R)-5-(6-amino-9H-purin-9-yl)-4-hydroxytetrahydrofuran-2-yl)methoxy)(phenoxy)phosphoryl)amino)acetate] | 15 to 100 µM | 100 to 5000 nM | 15 to 100 µM | 5 to 15 µM | 5 to 15 µM | 5 to 15 µM | 100% | 15 to 100 µM | 5 to 15 µM | 100 to 5000 nM | 100 to 5000 nM | 5 to 15 µM | 104% | 15 to 100 µM | 15 to 100 µM | 15 to 100 µM | 15 to 100 µM | 5 to 15 µM | 106% | 5 to 15 µM | Emax ([1]; read-out: MI %): 102%; Emax ([2]; read-out: MI %): 99%; Emax ([3]; read-out: MI %): 99%; Emax ([4]; read-out: MI %): 106%; Emax ([5]; read-out: MI %): 100%; Emax ([7]; read-out: MI %): 99%; Emax ([8]; read-out: MI %): 100%; Emax ([9]; read-out: MI %): 102%; Emax ([10]; read-out: MI %): 92%; Emax ([13]; read-out: MI %): 102%; Emax ([14]; read-out: MI %): 99%; Emax ([15]; read-out: MI %): 100%; Emax ([17]; read-out: MI %): 100%; IC50 [18]: 5 to 15 µM; IC50 [19]: 15 to 100 µM; Emax ([19]; read-out: MI %): 103%; IC50 [20]: 5 to 15 µM; Emax [20]: 100%
